Data: PubChem BioAssay AID330 (DTP/NCI, 2004)
“And” between values parts separate entries of the source, which are not always exact repeats. Equal entries are not always repeated. Toxic doses and inconclusive results are not listed. How the source made its calls: active means survival T/C of 150% or more; inactive means T/C below 125% in these data.

Test system: P388 leukemia ip, CD2F1 mice, survival T/C
Assay: NCI In Vivo Anticancer Drug Screen. Data for tumor model P388 Leukemia (intraperitoneal) in CD2F1 (CDF1) mice
Conditions: endpoint: median survival time, higher = longer survival
Outline: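 Mice carrying the transplanted tumor received test compound or vehicle. Survival was recorded in each group, and the value is the treated-group measurement divided by that of the vehicle-treated control group.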

[1] = dose: 25.0 mg/kg/injection, schedule: Q01DX009 (ip), vehicle: saline
[2] = dose: 50.0 mg/kg/injection, schedule: Q01DX009 (ip), vehicle: saline
[3] = dose: 15.0 mg/kg/injection, schedule: Q01DX005 (ip), vehicle: saline with Tween-80
[4] = dose: 30.0 mg/kg/injection, schedule: Q01DX005 (ip), vehicle: saline with Tween-80
[5] = dose: 60.0 mg/kg/injection, schedule: Q01DX005 (ip), vehicle: saline with Tween-80
[6] = dose: 100.0 mg/kg/injection, schedule: Q01DX001 (ip), vehicle: Klucel (hydroxypropylcellulose) (HPC)
[7] = dose: 50.0 mg/kg/injection, schedule: Q01DX005 (ip), vehicle: Klucel (hydroxypropylcellulose) (HPC)
[8] = dose: 50.0 mg/kg/injection, schedule: Q01DX009 (ip), vehicle: saline with Tween-80
[9] = dose: 12.5 mg/kg/injection, schedule: Q04DX002 (ip), vehicle: saline with Tween-80
[10] = dose: 100.0 mg/kg/injection, schedule: Q04DX003 (ip), vehicle: saline with Tween-80

Measured: T/C

CC(=O)NNC(=O)c1ccccn1
inactive: dose: 12.5 mg/kg/injection, schedule: Q01DX009 (ip), vehicle: saline 90 % of control | [1] 92 % of control | [2] 96 % of control | dose: 50.0 mg/kg/injection, schedule: Q01DX009 (ip), vehicle: water 110 % of control | dose: 75.0 mg/kg/injection, schedule: Q01DX009 (ip), vehicle: water 110 % of control | dose: 100.0 mg/kg/injection, schedule: Q01DX009 (ip), vehicle: saline 100 % of control | dose: 100.0 mg/kg/injection, schedule: Q01DX009 (ip), vehicle: water 120 % of control | dose: 125.0 mg/kg/injection, schedule: Q01DX009 (ip), vehicle: water 120 % of control | dose: 200.0 mg/kg/injection, schedule: Q01DX009 (ip), vehicle: saline 88 % of control

CCOC(=O)CC(CS(=O)CP(=O)(OCC)OCC)C(=O)OCC (centres undefined)
inactive: dose: 7.5 mg/kg/injection, schedule: Q01DX005 (ip), vehicle: saline with Tween-80 91 % of control | [3] 92 % of control | [4] 102 % of control | [5] 102 % of control and 110 % of control

CS(=O)(=O)OC1COCC1OS(C)(=O)=O (centres undefined)
inactive: [6] 95 % of control | dose: 100.0 mg/kg/injection, schedule: Q04DX003 (ip), vehicle: Klucel (hydroxypropylcellulose) (HPC) 99 % of control | dose: 200.0 mg/kg/injection, schedule: Q01DX001 (ip), vehicle: Klucel (hydroxypropylcellulose) (HPC) 95 % of control | dose: 200.0 mg/kg/injection, schedule: Q04DX003 (ip), vehicle: Klucel (hydroxypropylcellulose) (HPC) 100 % of control | dose: 400.0 mg/kg/injection, schedule: Q01DX001 (ip), vehicle: Klucel (hydroxypropylcellulose) (HPC) 100 % of control | dose: 400.0 mg/kg/injection, schedule: Q04DX003 (ip), vehicle: Klucel (hydroxypropylcellulose) (HPC) 107 % of control

NC(=O)c1ncn2c(=O)n(CCCl)nnc12
inactive: [7] 100 % of control
active: dose: 6.25 mg/kg/injection, schedule: Q01DX005 (ip), vehicle: saline 181 % of control and 236 % of control | dose: 6.7 mg/kg/injection, schedule: Q01DX005 (ip), vehicle: saline 254 % of control | dose: 10.0 mg/kg/injection, schedule: Q01DX005 (ip), vehicle: saline 565 % of control and 566 % of control | dose: 12.5 mg/kg/injection, schedule: Q01DX005 (ip), vehicle: saline 272 % of control and 275 % of control and 297 % of control | dose: 15.0 mg/kg/injection, schedule: Q01DX005 (ip), vehicle: saline 566 % of control and 606 % of control | dose: 22.0 mg/kg/injection, schedule: Q01DX005 (ip), vehicle: saline 393 % of control and 566 % of control | dose: 25.0 mg/kg/injection, schedule: Q01DX005 (ip), vehicle: saline 272 % of control and 297 % of control and 306 % of control | dose: 33.0 mg/kg/injection, schedule: Q01DX005 (ip), vehicle: saline 566 % of control and 606 % of control

CCCCCCCCCCCC(=O)NC(=S)Nc1ccccc1C(=O)OC
inactive: [1] 105 % of control | [2] 99 % of control

O=C1C2C3C=CC(O3)C2C(=O)N1CCN1CCOCC1 (centres undefined)
inactive: dose: 25.0 mg/kg/injection, schedule: Q01DX005 (ip), vehicle: water 96 % of control | dose: 50.0 mg/kg/injection, schedule: Q01DX005 (ip), vehicle: water 97 % of control | dose: 100.0 mg/kg/injection, schedule: Q01DX005 (ip), vehicle: other 93 % of control | dose: 100.0 mg/kg/injection, schedule: Q01DX005 (ip), vehicle: water 102 % of control | dose: 200.0 mg/kg/injection, schedule: Q01DX005 (ip), vehicle: other 101 % of control

CN1CC=Nc2c1nc(N)[nH]c2=O
inactive: [8] 98 % of control | dose: 100.0 mg/kg/injection, schedule: Q01DX009 (ip), vehicle: saline with Tween-80 95 % of control

CN=C(NC)Nc1nc(-c2ccccc2)c(-c2ccccc2)[nH]1
inactive: [9] 105 % of control | dose: 25.0 mg/kg/injection, schedule: Q04DX002 (ip), vehicle: saline with Tween-80 100 % of control | dose: 50.0 mg/kg/injection, schedule: Q04DX002 (ip), vehicle: saline with Tween-80 107 % of control

COC(=O)C1(O)OCC(O)C(O)C1O (centres undefined)
inactive: dose: 50.0 mg/kg/injection, schedule: Q01DX005 (ip), vehicle: saline 100 % of control | dose: 100.0 mg/kg/injection, schedule: Q01DX005 (ip), vehicle: saline 105 % of control | dose: 200.0 mg/kg/injection, schedule: Q01DX005 (ip), vehicle: saline 100 % of control

O=[N+]([O-])c1ccccc1O
inactive: dose: 12.5 mg/kg/injection, schedule: Q01DX009 (ip), vehicle: saline with Tween-80 109 % of control | dose: 25.0 mg/kg/injection, schedule: Q01DX009 (ip), vehicle: saline with Tween-80 113 % of control | [8] 109 % of control | [10] 105 % of control | dose: 200.0 mg/kg/injection, schedule: Q04DX003 (ip), vehicle: saline with Tween-80 110 % of control | dose: 400.0 mg/kg/injection, schedule: Q04DX003 (ip), vehicle: saline with Tween-80 105 % of control

C=C1C(=O)OC2C1CC(OC(C)=O)/C(C)=C/CCC1(C)OC21 (centres undefined)
inactive: dose: 4.0 mg/kg/injection, schedule: Q01DX009 (ip), vehicle: Klucel (hydroxypropylcellulose) (HPC) 93 % of control | dose: 8.0 mg/kg/injection, schedule: Q01DX009 (ip), vehicle: Klucel (hydroxypropylcellulose) (HPC) 97 % of control | dose: 16.0 mg/kg/injection, schedule: Q01DX009 (ip), vehicle: Klucel (hydroxypropylcellulose) (HPC) 96 % of control | dose: 32.0 mg/kg/injection, schedule: Q01DX009 (ip), vehicle: Klucel (hydroxypropylcellulose) (HPC) 93 % of control

Cc1c(C)c(C[P+](CCP(c2ccccc2)c2ccccc2)(c2ccccc2)c2ccccc2)c(C)c(C)c1C[P+](CCP(c1ccccc1)c1ccccc1)(c1ccccc1)c1ccccc1
inactive: dose: 3.12 mg/kg/injection, schedule: Q04DX002 (ip), vehicle: saline with Tween-80 100 % of control | dose: 6.25 mg/kg/injection, schedule: Q04DX002 (ip), vehicle: saline with Tween-80 102 % of control | [9] 100 % of control and 101 % of control

Cc1cc([N+](=O)[O-])c(Cl)cc1NS(=O)(=O)c1ccccc1
inactive: dose: 50.0 mg/kg/injection, schedule: Q04DX003 (ip), vehicle: saline with Tween-80 100 % of control | [10] 95 % of control

COc1ccc2oc3cccc(NCCN(C)C)c3c(=O)c2c1
inactive: dose: 25.0 mg/kg/injection, schedule: Q01DX005 (ip), vehicle: Klucel (hydroxypropylcellulose) (HPC) 105 % of control | [7] 100 % of control | dose: 100.0 mg/kg/injection, schedule: Q01DX005 (ip), vehicle: Klucel (hydroxypropylcellulose) (HPC) 107 % of control | dose: 200.0 mg/kg/injection, schedule: Q01DX005 (ip), vehicle: Klucel (hydroxypropylcellulose) (HPC) 107 % of control

O=S(=O)(F)c1ccc(C[P+](c2ccccc2)(c2ccccc2)c2ccccc2)cc1Cl
inactive: [3] 111 % of control | [4] 106 % of control | [5] 110 % of control and 86 % of control

CNC(=O)OCc1c(COC(=O)NC)c(-c2ccc(S(C)(=O)=O)cc2)n(C)c1C
active: dose: 50.0 mg/kg/injection, schedule: Q01DX009 (ip), vehicle: distilled water + Tween-80 162 % of control | dose: 100.0 mg/kg/injection, schedule: Q01DX009 (ip), vehicle: distilled water + Tween-80 161 % of control and 180 % of control | dose: 200.0 mg/kg/injection, schedule: Q01DX009 (ip), vehicle: distilled water + Tween-80 198 % of control
inactive: dose: 12.5 mg/kg/injection, schedule: Q01DX009 (ip), vehicle: distilled water + Tween-80 111 % of control

O/C(=C(\c1ccccc1)n1ncc2c1OCCC2)c1ccccc1
inactive: dose: 50.0 mg/kg/injection, schedule: Q01DX001 (ip), vehicle: Klucel (hydroxypropylcellulose) (HPC) 94 % of control | [6] 95 % of control

CCOC(=O)C1C(=O)C(CN(CCCl)CCCl)C(=O)C(C(=O)OCC)C1c1ccc(O)cc1 (centres undefined)
inactive: dose: 4.6 micrograms/kg/injection, schedule: Q01DX009 (ip), vehicle: Klucel (hydroxypropylcellulose) (HPC) 104 % of control | dose: 9.0 micrograms/kg/injection, schedule: Q01DX009 (ip), vehicle: Klucel (hydroxypropylcellulose) (HPC) 109 % of control | dose: 18.7 micrograms/kg/injection, schedule: Q01DX009 (ip), vehicle: Klucel (hydroxypropylcellulose) (HPC) 109 % of control | dose: 37.5 micrograms/kg/injection, schedule: Q01DX009 (ip), vehicle: Klucel (hydroxypropylcellulose) (HPC) 116 % of control

CCOC(CN/C(=C/c1ccc2ccccc2[n+]1C)SC)OCC
inactive: [3] 117 % of control | [4] 121 % of control

CC(=O)O.CC(=O)O.CC(=O)O.CC(=O)O.[Cu].[Cu]
inactive: dose: 6.25 mg/kg/injection, schedule: Q04DX002 (ip), vehicle: Klucel (hydroxypropylcellulose) (HPC) 91 % of control | dose: 12.5 mg/kg/injection, schedule: Q04DX002 (ip), vehicle: Klucel (hydroxypropylcellulose) (HPC) 100 % of control
